Laboratory results taken from PubChem BioAssay AID1963980 (Molecular Pharmacology Branch, DTP, NCI, 2024).

Tested on: 475296-252-R-J1-PDC spheroid viability
Assay: Anticancer human tumor 475296-252-R-J1-PDC patient-derived rectal carcinoma cell line growth inhibition [PI3K]
Details: spheroids with HUVEC and MSC; for IC50: curve of first compound; for viability, T/C: stronger effect = lower value; active = viability on the fitted dose curve at most 10% of control; inactive = the rest
Procedure, shortened: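 Multi-cell spheroids combine tumor cells with HUVEC and human MSCs, treated with targeted agents alone or with inavolisib, alpelisib, duvelisib or copanlisib. Concentrations fall in half-log steps from at or near clinical Cmax, or from 10 microM where Cmax is unknown; viability read-out.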

[1] = second compound 0.0316 µM, first compound 0.000316 µM
[2] = second compound 0.0316 µM, first compound 0.001 µM
[3] = second compound 0.0316 µM, first compound 0.00316 µM
[4] = second compound 0.0316 µM, first compound 0.01 µM
[5] = second compound 0.0316 µM, first compound 0.0316 µM
[6] = second compound 0.0316 µM, first compound 0.1 µM
[7] = second compound 0.1 µM, first compound 0.000316 µM
[8] = second compound 0.1 µM, first compound 0.001 µM
[9] = second compound 0.1 µM, first compound 0.00316 µM
[10] = second compound 0.1 µM, first compound 0.01 µM
[11] = second compound 0.1 µM, first compound 0.0316 µM
[12] = second compound 0.1 µM, first compound 0.1 µM
[13] = second compound 0.316 µM, first compound 0.000316 µM
[14] = second compound 0.316 µM, first compound 0.001 µM
[15] = second compound 0.316 µM, first compound 0.00316 µM
[16] = second compound 0.316 µM, first compound 0.01 µM
[17] = second compound 0.316 µM, first compound 0.0316 µM
[18] = second compound 0.316 µM, first compound 0.1 µM
[19] = second compound 1 µM, first compound 0.000316 µM
[20] = second compound 1 µM, first compound 0.001 µM
[21] = second compound 1 µM, first compound 0.00316 µM
[22] = second compound 1 µM, first compound 0.01 µM
[23] = second compound 1 µM, first compound 0.0316 µM
[24] = second compound 1 µM, first compound 0.1 µM
[25] = second compound 3.16 µM, first compound 0.000316 µM
[26] = second compound 3.16 µM, first compound 0.001 µM
[27] = second compound 3.16 µM, first compound 0.00316 µM
[28] = second compound 3.16 µM, first compound 0.01 µM
[29] = second compound 3.16 µM, first compound 0.0316 µM
[30] = second compound 3.16 µM, first compound 0.1 µM
[31] = second compound 10 µM, first compound 0.000316 µM
[32] = second compound 10 µM, first compound 0.001 µM
[33] = second compound 10 µM, first compound 0.00316 µM
[34] = second compound 10 µM, first compound 0.01 µM
[35] = second compound 10 µM, first compound 0.0316 µM
[36] = second compound 10 µM, first compound 0.1 µM
[37] = second compound 0.0316 µM, first compound 0.316 µM
[38] = second compound 0.0316 µM, first compound 1 µM
[39] = second compound 0.0316 µM, first compound 3.16 µM
[40] = second compound 0.0316 µM, first compound 10 µM
[41] = second compound 0.1 µM, first compound 0.316 µM
[42] = second compound 0.1 µM, first compound 1 µM
[43] = second compound 0.1 µM, first compound 3.16 µM
[44] = second compound 0.1 µM, first compound 10 µM
[45] = second compound 0.316 µM, first compound 0.316 µM
[46] = second compound 0.316 µM, first compound 1 µM
[47] = second compound 0.316 µM, first compound 3.16 µM
[48] = second compound 0.316 µM, first compound 10 µM
[49] = second compound 1 µM, first compound 0.316 µM
[50] = second compound 1 µM, first compound 1 µM
[51] = second compound 1 µM, first compound 3.16 µM
[52] = second compound 1 µM, first compound 10 µM
[53] = second compound 3.16 µM, first compound 0.316 µM
[54] = second compound 3.16 µM, first compound 1 µM
[55] = second compound 3.16 µM, first compound 3.16 µM
[56] = second compound 3.16 µM, first compound 10 µM
[57] = second compound 10 µM, first compound 0.316 µM
[58] = second compound 10 µM, first compound 1 µM
[59] = second compound 10 µM, first compound 3.16 µM
[60] = second compound 10 µM, first compound 10 µM
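Also: spheroids exposed to agents for seven days before readout.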

CC(=O)c1c(C)c2cnc(Nc3ccc(N4CCNCC4)cn3)nc2n(C2CCCC2)c1=O + Cc1nc(NC(=O)N2CCCC2C(N)=O)sc1-c1ccnc(C(C)(C)C(F)(F)F)c1
inactive: viability, T/C [1] 99.6% | viability, T/C [2] 96.9% | viability, T/C [3] 101% | viability, T/C [4] 97.4% | viability, T/C [5] 117% | viability, T/C [6] 118% | viability, T/C [7] 106% | viability, T/C [8] 94.4% | viability, T/C [9] 107% | viability, T/C [10] 91.3% | viability, T/C [11] 103% | viability, T/C [12] 108% | viability, T/C [13] 92% | viability, T/C [14] 114% | viability, T/C [15] 94.1% | viability, T/C [16] 101% | viability, T/C [17] 110% | viability, T/C [18] 101% | viability, T/C [19] 101% | viability, T/C [20] 95.5% | viability, T/C [21] 100% | viability, T/C [22] 112% | viability, T/C [23] 104% | viability, T/C [24] 102% | viability, T/C [25] 90.4% | viability, T/C [26] 102% | viability, T/C [27] 96.8% | viability, T/C [28] 99% | viability, T/C [29] 99.8% | viability, T/C [30] 98.9% | viability, T/C [31] 98% | viability, T/C [32] 92.7% | viability, T/C [33] 96.9% | viability, T/C [34] 98.9% | viability, T/C [35] 98.8% | viability, T/C [36] 90.2%
> 0.1 µM: IC50 (second compound 0.0316 µM) | IC50 (second compound 0.1 µM) | IC50 (second compound 0.316 µM) | IC50 (second compound 1 µM) | IC50 (second compound 3.16 µM) | IC50 (second compound 10 µM)

CC(C)n1nc(-c2ccc3oc(N)nc3c2)c2c(N)ncnc21 + Cc1nc(NC(=O)N2CCCC2C(N)=O)sc1-c1ccnc(C(C)(C)C(F)(F)F)c1
> 0.1 µM: IC50 (second compound 0.0316 µM) | IC50 (second compound 0.1 µM) | IC50 (second compound 0.316 µM) | IC50 (second compound 1 µM) | IC50 (second compound 3.16 µM) | IC50 (second compound 10 µM)
inactive: viability, T/C [1] 93.5% | viability, T/C [2] 95.3% | viability, T/C [3] 93.1% | viability, T/C [4] 88.4% | viability, T/C [5] 83.9% | viability, T/C [6] 64.1% | viability, T/C [7] 92.1% | viability, T/C [8] 98% | viability, T/C [9] 95.2% | viability, T/C [10] 84.5% | viability, T/C [11] 76.8% | viability, T/C [12] 62% | viability, T/C [13] 97.1% | viability, T/C [14] 95.4% | viability, T/C [15] 85% | viability, T/C [16] 92.8% | viability, T/C [17] 85.9% | viability, T/C [18] 59.9% | viability, T/C [19] 89.8% | viability, T/C [20] 106% | viability, T/C [21] 87.3% | viability, T/C [22] 91.9% | viability, T/C [23] 70.2% | viability, T/C [24] 57.1% | viability, T/C [25] 83.4% | viability, T/C [26] 86% | viability, T/C [27] 88.4% | viability, T/C [28] 77.5% | viability, T/C [29] 82.3% | viability, T/C [30] 54.3% | viability, T/C [31] 91.1% | viability, T/C [32] 85.1% | viability, T/C [33] 83.8% | viability, T/C [34] 89.2% | viability, T/C [35] 86.5% | viability, T/C [36] 54.4%

CC1(C)CCC(CN2CCN(c3ccc(C(=O)NS(=O)(=O)c4ccc(NCC5CCOCC5)c([N+](=O)[O-])c4)c(Oc4cnc5[nH]ccc5c4)c3)CC2)=C(c2ccc(Cl)cc2)C1 + Cc1nc(NC(=O)N2CCCC2C(N)=O)sc1-c1ccnc(C(C)(C)C(F)(F)F)c1
> 10 µM: IC50 (second compound 0.0316 µM) | IC50 (second compound 0.1 µM) | IC50 (second compound 0.316 µM) | IC50 (second compound 1 µM) | IC50 (second compound 3.16 µM) | IC50 (second compound 10 µM)
inactive: viability, T/C [5] 107% | viability, T/C [6] 90.1% | viability, T/C [37] 95.3% | viability, T/C [38] 87.2% | viability, T/C [39] 95.7% | viability, T/C [40] 62.5% | viability, T/C [11] 99.3% | viability, T/C [12] 85.6% | viability, T/C [41] 98.9% | viability, T/C [42] 93% | viability, T/C [43] 94.2% | viability, T/C [44] 63.5% | viability, T/C [17] 99.7% | viability, T/C [18] 97.5% | viability, T/C [45] 89.9% | viability, T/C [46] 84.5% | viability, T/C [47] 84.2% | viability, T/C [48] 69% | viability, T/C [23] 90.8% | viability, T/C [24] 93.2% | viability, T/C [49] 97.1% | viability, T/C [50] 93.3% | viability, T/C [51] 88.3% | viability, T/C [52] 73.3% | viability, T/C [29] 83.4% | viability, T/C [30] 82% | viability, T/C [53] 95.5% | viability, T/C [54] 90.5% | viability, T/C [55] 87.5% | viability, T/C [56] 63.3% | viability, T/C [35] 86.5% | viability, T/C [36] 87.6% | viability, T/C [57] 89.4% | viability, T/C [58] 89% | viability, T/C [59] 87.3% | viability, T/C [60] 56.7%

CCCS(=O)(=O)Nc1ccc(F)c(C(=O)c2c[nH]c3ncc(-c4ccc(Cl)cc4)cc23)c1F + Cc1nc(NC(=O)N2CCCC2C(N)=O)sc1-c1ccnc(C(C)(C)C(F)(F)F)c1
inactive: viability, T/C [5] 88.8% | viability, T/C [6] 95.5% | viability, T/C [37] 92.2% | viability, T/C [38] 91.5% | viability, T/C [39] 80.5% | viability, T/C [40] 94% | viability, T/C [11] 106% | viability, T/C [12] 94.6% | viability, T/C [41] 88% | viability, T/C [42] 81.2% | viability, T/C [43] 98.7% | viability, T/C [44] 100% | viability, T/C [17] 85% | viability, T/C [18] 94.8% | viability, T/C [45] 98.2% | viability, T/C [46] 92.6% | viability, T/C [47] 91.1% | viability, T/C [48] 96.3% | viability, T/C [23] 83.1% | viability, T/C [24] 97.3% | viability, T/C [49] 88.2% | viability, T/C [50] 89.8% | viability, T/C [51] 89.3% | viability, T/C [52] 82% | viability, T/C [29] 83.6% | viability, T/C [30] 92.8% | viability, T/C [53] 87.6% | viability, T/C [54] 92% | viability, T/C [55] 89.9% | viability, T/C [56] 73% | viability, T/C [35] 80.4% | viability, T/C [36] 82% | viability, T/C [57] 82.1% | viability, T/C [58] 80.4% | viability, T/C [59] 76.3% | viability, T/C [60] 66.1%
> 10 µM: IC50 (second compound 0.0316 µM) | IC50 (second compound 0.1 µM) | IC50 (second compound 0.316 µM) | IC50 (second compound 1 µM) | IC50 (second compound 3.16 µM) | IC50 (second compound 10 µM)
